The text below walks through data of patent publication US11311522B1 (Cavion, Inc., priority 2018, dated 2022).

For data set [1], the system named is patients with essential tremor. Briefly: T-CALM substudy: iMotor digital spirography. It is filed as in vivo, human. Particulars: dominant hand. The source says: The application requires the patient to complete a cycle of evaluations measuring motor function.
For the Archimedes spiral item of iMotor, subjects are asked to draw a spiral using a digital stylus on a tablet-based application. Prompts instruct the subject to trace a dotted grey mid-line that begins at the start of the spiral without lifting the stylus off the screen. The test is not timed. Subjects are asked to complete the task twice—one with the right and one with the left hand.
Functional tremor frequency (in Hz) is calculated by the iMotor algorithm based on the number and timing of stylus crosses of the mid-line. The mean change from baseline to Day 15 and Day 28 was calculated for the dominant hand. Statistical significance was calculated by Mann-Whitney non-parametric t-test (two tailed) (FIG. 5 and Table 5).

A short description of data set [2]: Crossover bioavailability study: adverse events. Type of data set: in vivo, human. Particulars: Any Treatment (Original IR, MR1 or MR2), single 8 mg doses; subjects n (%), N = 15.

Take `CC(C)c1ccc(CC(=O)N[C@H](C)c2ccc(OCC(F)(F)F)cn2)cc1` [CX-8998]: in data set [1] (Day 15 (8 mg BID)), the “Change from baseline in functional tremor frequency by iMotor, mean” value is reported as −2.66 Hz. In addition, in data set [1] (Day 28 (10 mg BID)), the “Change from baseline in functional tremor frequency by iMotor, mean” value is reported as −2.41 Hz. Besides, in data set [2], the “Adverse Event: Abnormal dreams” value is 3 (20%), the “Adverse Event: Any” value is reported as 11 (73%), the “Adverse Event: Dizziness” value is 5 (33%) and the “Adverse Event: Euphoric mood” value is on record as 2 (13%). Further, in data set [2], the “Adverse Event: Feeling abnormal” value is given as 4 (27%), the “Adverse Event: Headache” value is 5(33%), the “Adverse Event: Nervous System” value was 10 (67%) and the “Adverse Event: Paresthesias” value is reported as 7 (47%). In addition, in data set [2], the “Adverse Event: Psychiatric” value is 5 (33%).
